# Results as given in patent US20230100062A1, “ANTIMICROBIAL PEPTIDES” (priority 2019, published 2023).
# How the values were obtained:
# [1] = test system: EMRSA (12873); assay type: cell-based, S. aureus
# Description: (§1) Minimum Inhibitory Concentrations assay. Minimum inhibitory concentrations (MICs) were determined by broth microdilution on P. aeruginosa, E. coli, S. aureus, M. luteus, B. subtilis, S. typhimurium and K. pneumoniae according to the Clinical and Laboratory Standards Institute. Typically, 100 μL of 0.5-1×10^6 CFU per ml of each bacterium in Mueller Hinton media broth (Oxoid) were incubated in 96-well microtiter plates with 100 μL of serial two-fold dilutions of the corresponding antimicrobial agent (from 100 to 0 μM) at 37° C. on a 3D orbital shaker. The absorbance was measured after the addition of NI01, its derivatives or an antibiotic at 600 nm using a SpectraMax i3× Multi-Mode Microplate Reader (Molecular Devices). MICs were defined as the lowest protein concentration that inhibited visible bacterial growth after 24 h at 37° C.
# [2] = test system: EMRSA (12845); assay type: cell-based, S. aureus
# Description: as §1
# [3] = test system: EMRSA (12817); assay type: cell-based, S. aureus
# Description: as §1
# [4] = Hemolysis assay; assay type: cell-based, human; details: human, human erythrocytes, 10% (vol/vol) suspension, pH 7.2
# Description: Hemolysis assay. Hemolysis was determined using human erythrocytes sourced commercially from Cambridge Bioscience Ltd. and used within two days. 10% (vol/vol) suspensions of human erythrocytes were incubated with NI01, its derivatives or antibiotics. The cells were rinsed four times in 10 mM phosphate buffer saline (PBS, GibcoTM), pH 7.2, by repeated centrifugation and re-suspension (3 min at 3000×g). The cells were then incubated at room temperature for 1 h in either deionized water (fully hemolysed control), PBS, or with a corresponding antimicrobial agent in PBS. After centrifugation at 10,000×g for 5 min, the supernatant was separated from the pellet, and the absorbance was measured at 550 nm using a SpectraMax i3× Multi-Mode Microplate Reader (Molecular Devices). Absorbance of the suspension treated with deionized water defined complete hemolysis. The values given in Table S2 correspond to concentrations needed to lyse half of the sample population (50% lysis of erythrocytes) and are expressed as median hemolytic doses—HD50.
# [5] = In-liquid AFM imaging of SLBs mimicking bacterial membranes; details: 0.25 μM
# Source text: Lipid Vesicle Preparation. 1-palmitoyl-2-oleoyl-glycero-3-phosphocholine (POPC) with 1-palmitoyl-2-oleoyl-sn-glycero-3-phospho-(1′-rac-glycerol) (POPG) lipids used for vesicle construction were from Avanti Polar Lipids (Alabaster, USA). POPC was used as mammalian model membranes, and POPC/POPG (3:1, molar ratios) was used as bacterial model membranes. The lipids were weighted up, dissolved in chloroform-methanol (2:1, vol/vol), and dried under a nitrogen stream to form a thin film. The film was hydrated in 10 mM phosphate buffer (pH 7.4), vortexed for 2 min and bath sonicated for 30 min. The obtained suspension was extruded using a hand-held extruder (Avanti Polar lipids) (29 times, polycarbonate filter, 0.05 μm) to give a clear solution of small unilamellar vesicles, which were analysed (50 nm) by photon correlation spectroscopy (ZEN3600; Malvern Instruments, UK) following the re-suspension of vesicles to a final concentration of 1 mg/mL. Dynamic light scattering batch measurements were carried out in a low volume disposable cuvette at 25° C. Hydrodynamic radii were obtained through the fitting of autocorrelation data using the manufacturer's Dispersion Technology Software (version 5.10).
# Preparation of SLBs for in-liquid AFM imaging. SLBs were formed using a vesicle fusion method as described elsewhere.^19 Freshly prepared vesicles (1.5 μL, 3 mg/mL) were added to cleaved mica that was pre-hydrated in 20 mM MOPS, 120 mM NaCl, 20 mM MgCl2 (pH 7.4).
# After incubation over 45 min, the samples were washed 10 times with imaging buffer (20 mM MOPS, with 120 mM NaCl, pH 7.4) to remove unfused vesicles. The resulting SLBs were checked to confirm they were defect free. Mica discs (Agar Scientific, Stansted, UK) were glued to a metal puck, and freshly cleaved prior to lipid deposition.
# In-liquid AFM imaging of SLBs. The topographic imaging of SLBs in aqueous buffers was performed on a Multimode 8 AFM system (Bruker AXS, USA) using Peak Force Tapping™ mode and MSNL-E cantilevers (Bruker AFM probes, USA). Images were taken at the PeakForce frequency of 2 kHz, PeakForce amplitude of 10-20 nm and PeakForce set-point of 10-30 mV (<100 pN). The images were then processed using Gwyddion (http://gwyddion.net) for line-by-line background subtraction (flattening) and plane fitting. NI01 or its derivatives were introduced into a 100-μL fluid cell (Bruker AXS, USA) to the final concentrations stated.
# [6] = test system: S. aureus (ATCC 6538); test: microbe, parasite or virus in culture; assay type: cell-based; details: ATCC 6538, 24 h
# Description: as §1
# [7] = test system: B. subtilis (ATCC 6633); test: microbe, parasite or virus in culture; assay type: cell-based; details: ATCC 6633, 24 h
# Description: as §1
# [8] = test system: M. luteus (ATCC 49732); test: microbe, parasite or virus in culture; assay type: cell-based; details: ATCC 49732, 24 h
# Description: as §1
# [9] = test system: P. aeruginosa (ATCC 27853); test: microbe, parasite or virus in culture; assay type: cell-based; details: ATCC 27853, 24 h
# Description: as §1
# [10] = test system: E. coli (ATCC 15597); test: microbe, parasite or virus in culture; assay type: cell-based; details: ATCC 15597, 24 h
# Description: as §1
# [11] = test system: K. pneumoniae (NCTC 5055); test: microbe, parasite or virus in culture; assay type: cell-based; details: NCTC 5055, 24 h
# Description: as §1
# [12] = Thermal unfolding by CD spectroscopy; assay type: physicochemical; details: 20 μM protein, pH 7.4, 10 mM phosphate buffer
# Description: Circular Dichroism Spectroscopy. Aqueous peptide solutions (300 μL, at a given concentration) were prepared in filtered (0.22 μm), 10 mM phosphate buffer, pH 7.4. CD spectra recorded in the presence of synthetic membranes are for L/P molar ratio of 100. All CD spectra were recorded on a JASCO J-810 spectropolarimeter fitted with a Peltier temperature controller. All measurements were taken in ellipticities in mdeg and converted to molar ellipticities by normalizing for the concentration of peptide bonds and cuvette path length ([θ], deg cm2 dmol−1 res−1). The data collected with a 1 nm step and 1 s collection time per step are presented as the average of 4 scans. Thermal denaturation curves were recorded with 2° C. intervals using 1 nm bandwidth, 180 s equilibration time for each spectrum and with 2° C./min ramp rate.
substance,measurement,setting,value
H-MAAFMKLIQFLATKGQKYVSLAWKHKGTILKWIN-NH2 [α1α2α3],Minimum Inhibitory Concentration,[1],32 µg/mL
same,Minimum Inhibitory Concentration,[2],32 µg/mL
same,Minimum Inhibitory Concentration,[3],32 µg/mL
same,HC50 at 1 h,[4],200 µg/mL
same,mode of membrane disruption (AFM),[5],two predicted modes of membrane disruption were evident
same,Minimum Inhibitory Concentration,[6],6 µg/mL
same,Minimum Inhibitory Concentration,[7],6 µg/mL
same,Minimum Inhibitory Concentration,[8],6 µg/mL
same,Minimum Inhibitory Concentration,[9],12 µg/mL
same,Minimum Inhibitory Concentration,[10],6 µg/mL
same,Minimum Inhibitory Concentration,[11],20 µg/mL
aureocin A53,transition midpoint (TM) of thermal unfolding,[12],~54 °C
same,mode of membrane disruption (AFM),[5],membrane thinning patches and transmembrane lesions and pores
